Results from a melting point compilation (Tetko et al.; mined from patent text by program, amines drawn as free bases though some values may be those of a salt).

SMILES	melting point [°C]
CC(=O)NC(=S)NCCC1CC2c3cccc4[nH]cc(c34)CC2N(C)C1 (stereo not given)	213 to 215
Cc1c(Cc2cc(Cl)cc(Cl)c2)c(C(C)C)nn1CCO	77 to 78
CC(=O)N1CCC(CCC(=O)c2ccc3c4c2CCCC4CN3C(C)=O)CC1 (stereo not given)	130 to 132
C=CCC1C(=O)N(c2ccccc2)N(c2ccccc2)C1=O	135 to 137
COc1ccc(SC2CC(=O)NC2=O)cc1 (stereo not given)	93 to 94
Cn1c(CCCOc2ccc(CC3SC(=O)NC3=O)cc2)nc2cccnc21 (stereo not given)	185 to 186
COC[C@H]1CCCN1C(=O)c1cc(-c2ccccc2)c(=O)n2c1-c1ccccc1C2	130 to 131
O=C1NCCN1Cc1cccc(F)c1	103 to 105
FC(F)(F)CCN1CCN(Cc2ccc3c(c2)-c2[nH]nc(-c4ccsc4)c2C3)CC1	195 to 200
O=S(=O)(c1ccccc1)n1ccc2cnccc21	127
CC(C)[C@H](NC(=O)NCc1cccnc1)C(=O)NC(Cc1ccccc1)C(O)C(Cc1ccccc1)NC(=O)[C@@H](NC(=O)OCc1ccccc1)C(C)C (stereo not given in full)	205 to 206
CN1CCN(C2=Nc3ccccc3N3CCCc4cc(Br)cc2c43)CC1	181 to 183
Cc1cccc2cc3c(=O)n(CCc4c[nH]c5ccccc45)cc(C(=O)NCCN(C)C)c3nc12	105 to 107
Clc1ccc(Cn2cc(CN3CCC(c4ccccc4)(c4ccccc4)CC3)nn2)cc1	148
FC(F)(F)c1cccc(Sc2cc(Br)nc(Br)c2)c1	68 to 70
CN(CCO)CC1(SSC2(CN(C)CCO)CCCCC2)CCCCC1	65 to 70
COC(=O)c1ccc(OCCF)cc1	77
Cn1c(COc2ccc(CC3SC(=O)NC3=O)cc2)nc2ccc(Oc3ccc(O)cc3)cc21 (stereo not given)	126 to 131
CCCCCc1ccc(OC(=O)Oc2ccc([N+](=O)[O-])cc2)cc1	67 to 69
COc1ccc(Nc2ncc3cc(-c4c(Cl)cccc4Cl)c(=O)n(C)c3n2)cc1C	218 to 220

SMILES	melting point [°C]
COP(=O)(CC(O)c1c(C)cc(C)cc1-c1ccc(F)c(C)c1)OC (stereo not given)	98 to 100
CC(C)S(=O)(=O)n1c(N)nc2ccc(C(=CCl)c3ccccc3)cc21	180 to 181
CC(C)(C)NC(=O)[C@@H]1CNNC1=O	175 to 178
CCOC(=O)C=CC(=S)c1ccc(-c2ccccc2)cc1	74 to 75
COc1cc(OC)c2c(=O)cc(-c3ccccc3Cl)oc2c1C1CCN(C)C1CO (stereo not given)	91 to 93
O=C(O)c1nn(-c2ccc(Cl)cc2)c2c1[C@H]1CC[C@@H]2C1	110 to 112
N[C@@H]1C(=C2OCc3ccccc32)[C@@H]2C[C@H]1C(=C1OCc3ccccc31)[C@H]2N	108
Cc1cc(-c2nnc(C(C)(C)C)o2)ccc1N=CN(C)C	79 to 80
COc1cc(C=C[N+](=O)[O-])cc(OC)c1OC	116 to 118
CCOC(=O)COc1ccc(C(=O)CN2CCN(c3ccncc3)CC2)cc1	41 to 42
CCOC(=O)n1nc(-c2cc(C(C)(C)C)c(O)c(C(C)(C)C)c2)c2cccnc21	161 to 163
COC(=O)CCCCCCCCCNS(=O)(=O)c1ccc(Cl)cc1	68 to 70
CC(C)C(C)CCC(C)C1CCC2C3CCC4CC(OC(=O)c5ccccc5)CCC4(C)C3CCC12C (stereo not given)	232 to 234
COC(=O)C(C)c1cccc(C(=O)c2ccccc2)c1 (stereo not given)	50 to 52
FC(F)(F)c1cccc(CSc2nnc(-c3ccnc4[nH]ccc34)o2)c1	164 to 165
CCCCCCCCCCCCCCCCOCC(CO)OCOC(c1ccccc1)(c1ccccc1)c1ccccc1 (stereo not given)	38
O=C(O)COc1cccc2c1CCc1sc(SC(Cc3ccccc3)c3ccccc3)nc1-2 (stereo not given)	201 to 204
O=C(OCC=Cc1ccccc1)C(=C1NCCCS1)[N+](=O)[O-]	115 to 116
O=P(O)(O)c1ccc2ccccc2n1	200
CN(C)C=C(C#N)CC#N	49
